Experiments:
[1] = test system: HER3-ss+4aa/Gaussia Luciferase; test: Dox-Induced Her3-ss-Gluc Assay; format: cell-based; conditions: 24 hr Dox induction; 293FRT/TO cells; read-out: 24 hr Dox Inducible Her3(ss + 4)Gluc 293FRT/TO: Mean IC50
Procedure, shortened: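 Doxycycline-inducible HER3 signal sequence+4aa/Gaussia luciferase construct, stably integrated in Flp-In 293 T-REx cells; compound dilutions applied with doxycycline at 37° C., 5% CO2.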

[2] = test system: multiple myeloma cell line U266B1; test: U266 Cell Viability Assay; format: cell-based, human; conditions: Homo sapiens, U-266, 48 h, U266B1 cells, Celltiter-Glo
Procedure, shortened: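 After growth in serum-supplemented RPMI 1640, cells received serially diluted compound in DMSO/media and were kept 48 hours before a CellTiter-Glo luminescence readout.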

[3] = test system: IL-2-FL/Gaussia Luciferase; test: Dox Induced IL2-FL-Gluc Assay; format: cell-based; conditions: for IC50: 24 hr Dox induction, 293FRT/TO cells, read-out: 24 hr Dox Inducible IL2FLGluc 293FRT/TO: Mean IC50; for 24 hr Dox Inducible IL2FLGluc 293FRT/TO: IL2/PD1: ratio of IL2FLGluc IC50 to PD1ssGluc IC50
Procedure, shortened: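 A hygromycin- and blasticidin-resistant 293 T-REx clone carrying inducible IL-2–Gaussia luciferase (full-length IL-2, residues 1-153) serves as the cell system. After overnight plating, the cells get test compounds together with doxycycline in DMSO/media and are incubated at 37° C, 5% CO2.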

[4] = test system: TNFα-FL/Gaussia Luciferase; test: Dox Induced TNFα-FL-Gluc Assay; format: cell-based; conditions: for IC50: 24 hr Dox induction, 293FRT/TO cells, read-out: 24 hr Dox Inducible TNFaFLGluc 293FRT/TO: Mean IC50; for 24 hr Dox Inducible TNFaFLGluc 293FRT/TO: TNF/PD1: ratio of TNFaFLGluc IC50 to PD1ssGluc IC50
Procedure, shortened: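 Hygromycin/blasticidin-selected Flp-In 293 T-REx cells, TNFα-FL/Gaussia luciferase fusion under T-REx control; overnight plating, then compound in DMSO/media with doxycycline at 37 °C, 5% CO2; stereo-undefined structures tested as mixtures.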

[5] = test system: PD1-ss+10aa/Gaussia Luciferase; test: Dox-Induced PD1-ss-Gluc Assay; format: cell-based; conditions: 24 hr Dox induction; 293FRT/TO cells; read-out: 24 hr Dox Inducible PD1ssGluc 293FRT/TO: Mean IC50
Procedure, shortened: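 Stable Flp-In 293 T-REx cells carried a doxycycline-inducible construct of Gaussia luciferase fused to the PD1 signal sequence plus 10 amino acids. Cells were plated the day before, then treated with compound dilutions in DMSO/media containing doxycycline at 37 °C, 5% CO2.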

[6] = Liver Microsome Stability Assay (human); conditions: human liver microsomes, with NADPH, 1.0 uM compound
Method: (§1) Stability of a compound was assessed in the presence of liver microsomes from various sources—mouse, rat, monkey and human liver microsomes. 1.0 uM compound, 0.4% DMSO in 0.1 M Potassium Phosphate with 1.0 mg/mL liver microsomes, were incubated at 37° C. with or without 1 mM NADPH. The samples were quenched at 0, and 30 minutes.

[7] = Liver Microsome Stability Assay (monkey); conditions: monkey liver microsomes, with NADPH, 1.0 uM compound
Method: as §1

[8] = test system: multiple myeloma cell line NCI-H929; test: H929 Cell Viability Assay; format: cell-based, human; conditions: Homo sapiens, NCI-H929, 48 h, NCI-H929 cells, Celltiter-Glo
Procedure, shortened: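 A 48-hour compound treatment of cells in 10% FBS RPMI medium was followed by luciferase-based viability quantification.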

[9] = Liver Microsome Stability Assay (mouse); conditions: mouse liver microsomes, with NADPH, 1.0 uM compound
Method: as §1

[10] = Liver Microsome Stability Assay (rat); conditions: rat liver microsomes, with NADPH, 1.0 uM compound
Method: as §1

Row | Compound | IC50 [1] [µM] | EC50 [2] [µM] | IC50 [3] [µM] | 24 hr Dox Inducible IL2FLGluc 293FRT/TO: IL2/PD1 [3] | IC50 [4] [µM] | 24 hr Dox Inducible TNFaFLGluc 293FRT/TO: TNF/PD1 [4] | IC50 [5] [µM] | Liver Microsome Stability (Multiple Species): Human - % Remaining after 30 min w/NADPH [6] [%] | Liver Microsome Stability (Multiple Species): Monkey - % Remaining after 30 min w/NADPH [7] [%] | EC50 [8] [µM] | Liver Microsome Stability (Multiple Species): Mouse - % Remaining after 30 min w/NADPH [9] [%] | Liver Microsome Stability (Multiple Species): Rat - % Remaining after 30 min w/NADPH [10] [%]
1 | O=C(Nc1nc(/C=C/c2cn(C3CCCCC3)cn2)cs1)c1cccn1Cc1ccncc1 [Compound B54, (E)-N-(4-(2-(1-cyclohexyl-1H-imidazol-4-yl)vinyl)thiazol-2-yl)-1-(pyridin-4-ylmethyl)-1H-pyrrole-2-carboxamide] | 2.95 | > 23.6 | 5.52 | 810 | 9.42 | 1370 | 0.00685 | 0.4 | 2.69 | 13.9 | 4.16 | 4.57
2 | O=C(Nc1nc(/C=C/c2cn(C3CCCCC3)cn2)cs1)c1cccn1Cc1ccnc(F)c1 [Compound B55, (E)-N-(4-(2-(1-cyclohexyl-1H-imidazol-4-yl)vinyl)thiazol-2-yl)-1-((2-fluoropyridin-4-yl)methyl)-1H-pyrrole-2-carboxamide] | 1.17 | > 25 | 2.01 | 79 | 6.62 | 262 | 0.0253 | 0.41 | 0.4 | > 20.8 | 1.7 | 0.3
3 | COCCn1cnc(/C=C/c2csc(NC(=O)c3cccn3Cc3ccncc3)n2)c1 [Compound B56, (E)-N-(4-(2-(1-(2-methoxyethyl)-1H-imidazol-4-yl)vinyl)thiazol-2-yl)-1-(pyridin-4-ylmethyl)-1H-pyrrole-2-carboxamide] | > 25 | > 25 | > 25 | >48 | > 25 | >48.0 | 0.52 | 0.46 | 0.27 | > 25 | 1.72 | 0.57
4 | CC(C)n1cncc1/C=C/c1csc(NC(=O)c2cccn2Cc2ccncc2)n1 [Compound B57, (E)-N-(4-(2-(1-isopropyl-1H-imidazol-5-yl)vinyl)thiazol-2-yl)-1-(pyridin-4-ylmethyl)-1H-pyrrole-2-carboxamide] | > 25 | > 24.2 | > 25 | >8.7 | 16.7 | 5.83 | 2.86 | 17.5 | 2.84 | 16.3 | 17.3 | 34.4
5 | Cc1c(/C=C/c2csc(NC(=O)c3cccn3Cc3ccncc3)n2)ncn1C(C)C [Compound B58, (E)-N-(4-(2-(1-isopropyl-5-methyl-1H-imidazol-4-yl)vinyl)thiazol-2-yl)-1-(pyridin-4-ylmethyl)-1H-pyrrole-2-carboxamide] | 12.4 | 18.4 | > 19.7 | >810 | 2.31 | 952 | 0.0244 | 0.28 | 5.89 | 15.4 | 2.14 | 1.67
6 | Cc1cccc(/C=C/c2csc(NC(=O)c3cccn3Cc3ccnc(F)c3)n2)n1 [Compound B59, (E)-1-((2-fluoropyridin-4-yl)methyl)-N-(4-(2-(6-methylpyridin-2-yl)vinyl)thiazol-2-yl)-1H-pyrrole-2-carboxamide] | 2.1 | 11.9 | 6.09 | 13 | 13.9 | 29.7 | 0.467 | 0.32 | 0.17 | 7.91 | 0.64 | 0.55
7 | O=C(Nc1nc(/C=C/c2ccc3c(n2)CCCC3)cs1)c1cccn1Cc1ccnc(F)c1 [Compound B60, (E)-1-((2-fluoropyridin-4-yl)methyl)-N-(4-(2-(5,6,7,8-tetrahydroquinolin-2-yl)vinyl)thiazol-2-yl)-1H-pyrrole-2-carboxamide] | 0.725 | 15.8 | 1.75 | 13 | > 25 | >179 | 0.14 | 0.33 | 2.65 | 12.8 | 0.45 | 1.16
8 | O=C(Nc1nc(/C=C/c2cccc(=O)[nH]2)cs1)c1cccn1Cc1ccnc(F)c1 [Compound B61] | > 25 | > 25 | > 25 | <=>1.0 | > 25 | <=>1.00 | > 25 | 0.96 | 0.5 | > 25 | 9.41 | 12.3

From patent US20230286973A1, “PROTEIN SECRETION INHIBITORS” (KEZAR LIFE SCIENCES, priority 2020, published 2023)
